Test results taken from patent US20250179059A1 (The Regents of the University of California, priority 2021, published 2025).

How the values were obtained:
[1] = target: T1, human BRD4 bromodomain II (Homo sapiens, UniProt O60885); test: Bromodomain binding assay (AlphaScreen), BRD4 BDII; conditions: AlphaScreen assay, Table C2; read-out: BRD4 BDII IC50
T1 construct: human BRD4 bromodomain II [based on Genbank NM_058243, residues 349-460]; host or cells: E. coli
In short: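 AlphaScreen competition: His6-BRD4 BDI (aa 44-170) or BDII (aa 349-460) vs biotin-H4(1-21) K5/K8/K12/K16Ac peptide; Ni-chelate acceptor/streptavidin donor beads. HEPES pH 7.5, NaCl, CHAPS, BSA, 1% DMSO; RT. 10-pt 3-fold titration, % peptide binding fitted → IC50.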

[2] = system: human SKM-1 acute myeloid leukemia cells; test: SKM-1 antiproliferation cell-based assay (ATPlite); conditions: Homo sapiens, SKM-1, 96 h, SKM-1 antiproliferation assay, 4 days, Table C2
In short: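 Log-phase cells in RPMI 1640/15% FBS were seeded at 34722 cells/mL and exposed for 4 days to nine-concentration DMSO serial dilutions in triplicate. Viability was read as ATP luminescence (ATPlite 1step), and IC50 values came from variable-slope non-linear regression.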

| Compound | IC50 [1] [nM] | GI50 [2] [nM] |
| --- | --- | --- |
| CN1C2CCC1CN(c1cncc(-c3cc(F)cc(-c4ccc(-n5ccn(C)c5=O)c(Cl)c4)c3O)c1)C2 [Example 514, 1-(3-chloro-5′-fluoro-2′-hydroxy-3′-(5-(8-methyl-3,8-diazabicyclo[3.2.1]octan-3-yl)pyridin-3-yl)-[1,1′-biphenyl]-4-yl)-3-methyl-1H-imidazol-2(3H)-one] | 1 to 10 | 0.3 to 30 |
| CN[C@H]1CCN(c2cc(-c3cc(F)cc(-c4ccc(-n5ccn(C)c5=O)c(Cl)c4)c3O)cc(NC(C)=O)n2)C1 [Example 519, (S)-N-(4-(3′-chloro-5-fluoro-2-hydroxy-4′-(3-methyl-2-oxo-2,3-dihydro-1H-imidazol-1-yl)-[1,1′-biphenyl]-3-yl)-6-(3-(methylamino)pyrrolidin-1-yl)pyridin-2-yl)acetamide] | 1 to 10 | 0.3 to 30 |
| Cn1nnn(-c2ccc(-c3cc(F)cc(-c4ccnc(N5CCNCC5)c4)c3O)cc2Cl)c1=O [Example 520, 1-(3-chloro-5′-fluoro-2′-hydroxy-3′-(2-(piperazin-1-yl)pyridin-4-yl)-[1,1′-biphenyl]-4-yl)-^4-methyl-1H-tetrazol-5(4H)-one] | 10 to 100 | 300 to 3000 |
| C[C@@H]1CN(c2cc(-c3cc(F)cc(-c4ccc(-n5ccn(C)c5=O)c(Cl)c4)c3O)cc3[nH]cnc23)CCN1 [Example 522, (R)-1-(3-chloro-5′-fluoro-2′-hydroxy-3′-(4-(3-methylpiperazin-1-yl)-1H-benzo[d]imidazol-6-yl)-[1,1′-biphenyl]-4-yl)-3-methyl-1H-imidazol-2(3H)-one] | 1 to 10 | 0.3 to 30 |
| CC(C)C(=O)Nc1cc(-c2cc(F)cc(-c3ccc(-n4ccn(C)c4=O)c(Cl)c3)c2O)cc(N2CC[C@H](N)C2)n1 [Example 524, (S)-N-(6-(3-aminopyrrolidin-1-yl)-4-(3′-chloro-5-fluoro-2-hydroxy-4′-(3-methyl-2-oxo-2,3-dihydro-1H-imidazol-1-yl)-[1,1′-biphenyl]-3-yl)pyridin-2-yl)isobutyramide] | 1 to 10 | 0.3 to 30 |
| Cn1ccn(-c2ccc(-c3cc(F)cc(-c4cc(N5CCNCC5)c5cn[nH]c5c4)c3O)cc2Cl)c1=O [Example 526, 1-(3-chloro-5′-fluoro-2′-hydroxy-3′-(4-(piperazin-1-yl)-1H-indazol-6-yl)-[1,1′-biphenyl]-4-yl)-3-methyl-1H-imidazol-2(3H)-one] | 1 to 10 | 0.3 to 30 |
| Cn1ccn(-c2ccc(-c3cc(F)cc(-c4ccnc(N5CCN(C6COC6)CC5)c4)c3O)cc2Cl)c1=O [Example 528, 1-(3-chloro-5′-fluoro-2′-hydroxy-3′-(2-(4-(oxetan-3-yl)piperazin-1-yl)pyridin-4-yl)-[1,1′-biphenyl]-4-yl)-3-methyl-1H-imidazol-2(3H)-one] | 1 to 10 | 0.3 to 30 |
| CC(C)N1CCN(c2cc(-c3cc(F)cc(-c4ccc(-n5ccn(C)c5=O)c(Cl)c4)c3O)ccn2)CC1 [Example 530, 1-(3-chloro-5′-fluoro-2′-hydroxy-3′-(2-(4-isopropylpiperazin-1-yl)pyridin-4-yl)-[1,1′-biphenyl]-4-yl)-3-methyl-1H-imidazol-2(3H)-one] | 0.01 to 1 | 0.3 to 30 |

The remaining lines, values ahead:

| IC50 [1] [nM] | GI50 [2] [nM] | Compound |
| --- | --- | --- |
| 1 to 10 | 0.3 to 30 | CC(=O)Nc1cc(-c2cc(F)cc(-c3ccc(-n4ccn(C)c4=O)c(Cl)c3)c2O)cc(N2CC[C@H](N(C)C)C2)n1 [Example 515, (S)-N-(4-(3′-chloro-5-fluoro-2-hydroxy-4′-(3-methyl-2-oxo-2,3-dihydro-1H-imidazol-1-yl)-[1,1′-biphenyl]-3-yl)-6-(3-(dimethylamino)pyrrolidin-1-yl)pyridin-2-yl)acetamide] |
| 1 to 10 | 0.3 to 30 | CNC1CCN(c2cncc(-c3cc(F)cc(-c4ccc(-n5ccn(C)c5=O)c(Cl)c4)c3O)c2)CC1 [Example 516, 1-(3-chloro-5′-fluoro-2′-hydroxy-3′-(5-(4-(methylamino)piperidin-1-yl)pyridin-3-yl)-[1,1′-biphenyl]-4-yl)-3-methyl-1H-imidazol-2(3H)-one] |
| 0.01 to 1 | 0.3 to 30 | Cc1cc(-c2cc(F)cc(-c3ccc(-n4ccn(C)c4=O)c(Cl)c3)c2O)cc(N2CC[C@H](N)C2)n1 [Example 517, (S)-1-(3′-(2-(3-aminopyrrolidin-1-yl)-6-methylpyridin-4-yl)-3-chloro-5′-fluoro-2′-hydroxy-[1,1′-biphenyl]-4-yl)-3-methyl-1H-imidazol-2(3H)-one] |
| 0.01 to 1 | 0.3 to 30 | Cc1cc(-c2cc(C)nc(N3CC[C@H](N)C3)c2)c(O)c(-c2ccc(-n3ccn(C)c3=O)c(Cl)c2)c1 [Example 518, (S)-1-(3′-(2-(3-aminopyrrolidin-1-yl)-6-methylpyridin-4-yl)-3-chloro-2′-hydroxy-5′-methyl-[1,1′-biphenyl]-4-yl)-3-methyl-1H-imidazol-2(3H)-one] |
| 1 to 10 | 30 to 300 | Cn1ccn(-c2ccc(-c3cc(F)cc(-c4ccnc(N5CCN(CC(=O)O)CC5)c4)c3O)cc2Cl)c1=O [Example 521, 2-(4-(4-(3′-chloro-5-fluoro-2-hydroxy-4′-(3-methyl-2-oxo-2,3-dihydro-1H-imidazol-1-yl)-[1,1′-biphenyl]-3-yl)pyridin-2-yl)piperazin-1-yl)acetic acid] |
| 1 to 10 | 0.3 to 30 | CCC(=O)Nc1cc(-c2cc(F)cc(-c3ccc(-n4ccn(C)c4=O)c(Cl)c3)c2O)cc(N2CC[C@H](N)C2)n1 [Example 523, (S)-N-(6-(3-aminopyrrolidin-1-yl)-4-(3′-chloro-5-fluoro-2-hydroxy-4′-(3-methyl-2-oxo-2,3-dihydro-1H-imidazol-1-yl)-[1,1′-biphenyl]-3-yl)pyridin-2-yl)propionamide] |
| 1 to 10 | 0.3 to 30 | Cn1ccn(-c2ccc(-c3cc(F)cc(-c4cc(NC(=O)C5CC5)nc(N5CC[C@H](N)C5)c4)c3O)cc2Cl)c1=O [Example 525, (S)-N-(6-(3-aminopyrrolidin-1-yl)-4-(3′-chloro-5-fluoro-2-hydroxy-4′-(3-methyl-2-oxo-2,3-dihydro-1H-imidazol-1-yl)-[1,1′-biphenyl]-3-yl)pyridin-2-yl)cyclopropanecarboxamide] |
| 0.01 to 1 | 0.3 to 30 | Cn1ccn(-c2ccc(-c3cc(F)cc(-c4ccnc(N5CCN(CCCF)CC5)c4)c3O)cc2Cl)c1=O [Example 527, 1-(3-chloro-5′-fluoro-3′-(2-(4-(3-fluoropropyl)piperazin-1-yl)pyridin-4-yl)-2′-hydroxy-[1,1′-biphenyl]-4-yl)-3-methyl-1H-imidazol-2(3H)-one] |
| 1 to 10 | 0.3 to 30 | C[C@@H]1CN(c2cncc(-c3cc(Cl)cc(-c4ccc(-n5ccn(C)c5=O)c(Cl)c4)c3O)c2)CCN1 [Example 529, (R)-1-(3,5′-dichloro-2′-hydroxy-3′-(5-(3-methylpiperazin-1-yl)pyridin-3-yl)-[1,1′-biphenyl]-4-yl)-3-methyl-1H-imidazol-2(3H)-one] |
| 1 to 10 | 30 to 300 | Cn1ccn(-c2ccc(-c3cc(F)cc(-c4ccnc(N5CCN(C6CC6)CC5)c4)c3O)cc2Cl)c1=O [Example 531, 1-(3-chloro-3′-(2-(4-cyclopropylpiperazin-1-yl)pyridin-4-yl)-5′-fluoro-2′-hydroxy-[1,1′-biphenyl]-4-yl)-3-methyl-1H-imidazol-2(3H)-one] |
